# Tests used:
# Type in all cases: in vivo
# [1] = test system: Inbred Seed Corn; assay: Seed size and shape evaluation of seed from treated field plots (estimated units, bag weight, proportions); conditions: for % RDS: rounds as share of all units; for ABOVE 25: seed above size 25; for BELOW 17: seed below size 17; for EST. UNITS, total: sum of the four size/shape categories
# Procedure: In an actively growing seed corn field scheduled to be treated with Drexel Defol® 750, four test plots were evaluated. Two plots were treated with Drexel Defol® 5, a sodium chlorate formulation containing 5 pounds of active sodium chlorate per gallon, and with varying amounts of cyanate anions. Sodium cyanate salt was used as the source of cyanate for its compatibility with sodium chlorate. The results of these two treatments were compared to an untreated check and a plot treated with Defol® 750, which contained 7.5 pounds of active sodium chlorate per gallon. The amount of active sodium chlorate applied in the three treated plots was equivalent.
# • Crop: Inbred Seed Corn • Variety: A0036RMQKZ×HCL4011 • Plot Sizes: 5 acres for Plots 1-3; 7 acres for Plot 4 • Plot Location: Near Oxford, WI • Season/Year: Summer/2013 • Corn Stage: Full Dent • Application Equipment: Case Patriot Sprayer • Application Conditions: Temperature: 86° F. • Sky: Sunny • Wind: 4 mph • Application Diluent: Water • Application Volume: 20 gallons per acre • Number of full days between application and harvest: 24 days • Post Harvest Seed • Treatment: CruiserMaxx® Corn 250 Test Plot Treatments: • Plot 1—Untreated Check • Plot Size: 5 acres • Plot 2—Treatment A • Defol® 5: 4.8 quarts per acre • Sodium cyanate: 6.4 grams per acre • Water: 75.2 quarts per acre • Plot Size: 5 acres • Plot 3—Treatment B • Defol® 5: 4.8 quarts per acre • Sodium cyanate: 15.9 grams per acre • Water: 75.2 quarts per acre • Plot size: 5 acres • Plot 4—Defol® 750 Treatment Check • Defol® 750: 3.2 quarts per acre • Water: 76.8 quarts per acre • Plot size: 7 acres
# Samples of corn seed from each of the four test plots were evaluated for seed size, shape, as well as germination under certain test conditions: warm germination, cold germination and saturated cold germination. Each of the four evaluated categories (i.e., 26/21 Round, 21/17 Round, 26/21 Flat, 21/17 Flat) constituted desirable and saleable seed size and shape. Evaluation was performed at Biodiagnostics, Inc., River Falls, WI. The results were as follows:
# • Crop: Inbred Seed Corn • Variety: D2507VT3P • Plot Location: Jackson, WI • Season/Year: Summer/2014 • Corn Stage at Application: to Full Dent • Moisture at Application: 42% • Application Equipment: Case Patriot Sprayer • Application Conditions: Temperature: 88-90° F. • Sky: Clear • Wind: 2-3 mph • Application Diluent: Water • Application Volume: 20 gallons per acre • Number of full days between application and harvest: 8 days • Post Harvest Seed Treatment: CruiserMaxx® Corn 250 Test Plot Treatments: • Plot 1—Untreated Check • Plot Size: Balance of Field • Plot 2—Treatment A • Defol® 5: 4.8 quarts per acre • Sodium cyanate: 6.4 grams per acre • Water: 75.2 quarts per acre • Plot Size: 16 acres • Plot 3—Defol® 750 Treatment Check • Defol® 750: 3.2 quarts per acre • Water: 76.8 quarts per acre • Plot Size: 16 acres
# Samples of corn seed from each of the three test plots were evaluated for desirable/saleable seed size and shape, as well as germination under certain test conditions: warm germination, cold germination and saturated cold germination. Each of the four evaluated categories (i.e., 24/21 Round, 21/17 Round, 24/21 Flat, 21/17 Flat) constituted desirable and saleable seed size and shape. The results were as follows: […]
# [2] = test system: Inbred Seed Corn; assay: Warm germination test of harvested seed; conditions: for WARM GERM, sum: sum of the four size/shape categories
# Description: (§1) Seed quality can be evaluated by germination tests, such as warm germination, cold germination, and saturated cold germination. These types of tests are commonly used to predict seed germination and emergence. Among these tests, the saturated cold germination test exposes the seeds to cold, wet, and oxygen deficient stress, and is thus considered probative of seed germination viability over a range of field conditions. […]
# (§2) • Crop: Inbred Seed Corn • Variety: D2905VT3P • Plot Location: New Haven, WI • Season/Year: Summer/2014 • Corn Stage at Application: to Full Dent • Moisture at Application: 44% • Application Equipment: Case Patriot Sprayer • Application Conditions: Temperature: 88-90° F. • Sky: Clear • Wind: 2-3 mph • Application Diluent: Water • Application Volume: 20 gallons per acre • Number of full days between application and harvest: 10 days • Post Harvest Seed Treatment: CruiserMaxx® Corn 250 Test Plot Treatments: • Plot 1—Untreated Check • Plot Size: Balance of Field • Plot 2—Treatment A • Defol® 5: 4.8 quarts per acre • Sodium cyanate: 6.4 grams per acre • Water: 75.2 quarts per acre • Plot Size: 16 acres • Plot 3—Defol® 750 Treatment Check • Defol® 750: 3.2 quarts per acre • Water: 76.8 quarts per acre • Plot Size: 16 acres • Plot 4—Treatment B • Sodium cyanate: 6.4 grams per acre • Water: 80 quarts per acre • Plot Size: 16 acres
# (§3) Samples of corn seed from each of the three test plots were evaluated for desirable/saleable seed size and shape, as well as germination under certain test conditions: warm germination, cold germination and saturated cold germination. Each of the four evaluated categories (i.e., 24/21 Round, 21/16 Round, 24/21 Flat, 21/16 Flat) constituted desirable and saleable seed size and shape. The results were as follows:
# as §2, with “D3910VT2P” for “D2905VT3P”, “Springville,” for “New Haven,”, “Very early start of dent” for “to Full Dent”, “50-55%” for “44%”, “17” for “10”
# (§4) Samples of corn seed from each of the three test plots were evaluated for desirable/saleable seed size and shape, as well as germination under certain test conditions: warm germination, cold germination and saturated cold germination. Each of the four evaluated categories (i.e., 25/20 Round, 20/16 Round, 25/20 Flat, 20/16 Flat) constituted desirable and saleable seed size and shape.
# [3] = test system: Inbred Seed Corn; assay: Cold germination test of harvested seed; conditions: for COLD GERM, sum: sum of the four size/shape categories
# Description: as §1, §2, §3
# as §2, with “D3910VT2P” for “D2905VT3P”, “Springville,” for “New Haven,”, “Very early start of dent” for “to Full Dent”, “50-55%” for “44%”, “17” for “10”
# as §4
# [4] = test system: Inbred Seed Corn; assay: Saturated cold (super cold) germination test of harvested seed; conditions: for SUPER COLD, sum: sum of the four size/shape categories
# Description: Seed quality can be evaluated by germination tests, such as warm germination, cold germination, and saturated cold germination. These types of tests are commonly used to predict seed germination and emergence. Among these tests, the saturated cold germination test exposes the seeds to cold, wet, and oxygen deficient stress, and is thus considered probative of seed germination viability over a range of field conditions.
# The term “seed vigor” refers to a measure of the quality of a seed assemblage based on certain properties, such as percent germination, which can predict seed germination and emergence under a wide range of field conditions, particularly stress conditions. The methodology of the present disclosure can be followed to produce a seed assemblage that is characterized by enhanced seed vigor, as determined by seed vigor testing. […] One such technique is known as the saturated cold germination test. According to the Seed Vigor Testing Handbook by the Association of Official Seed Analysts (2009), the saturated cold germination test is the most stressful of various cold-test procedures for determining the vigor of a seed assemblage. In this test, the soil or planting medium is maintained at 100% water holding capacity for the duration of the test, which also subjects seeds to sub-optimal temperatures and soil-borne pathogens. These conditions evaluate seeds based on their response to three stress factors: imbibitional chilling injury, attack by soil-borne pathogens, and limited oxygen availability. These harsh conditions can allow testers to discriminate between seed assemblages differing in vigor, and thus the saturated cold germination test can act as a good indicator of seed quality for many crops. […]
# as §2
# Samples of corn seed from each of the three test plots were evaluated for desirable/saleable seed size and shape, as well as germination under certain test conditions: warm germination, cold germination and saturated cold germination. Each of the four evaluated categories (i.e., 24/21 Round, 21/16 Round, 24/21 Flat, 21/16 Flat) constituted desirable and saleable seed size and shape. The results were as follows: […]
# [5] = Example 2 Hybrid 2 (D2905VT3P, 2014), seed size 21/16F
# [6] = Example 2 Hybrid 2 (D2905VT3P, 2014), seed size 21/16R
# [7] = Example 2 Hybrid 2 (D2905VT3P, 2014), seed size 24/21F
# [8] = Example 2 Hybrid 2 (D2905VT3P, 2014), seed size 24/21R
# [9] = Example 2 Hybrid 2, column headed GRAMS in the 8th table
# [10] = Example 2 Hybrid 3 (D3910VT2P, 2014), seed size 20/16F
# [11] = Example 2 Hybrid 3 (D3910VT2P, 2014), seed size 20/16R
# [12] = Example 2 Hybrid 3 (D3910VT2P, 2014), seed size 25/20F
# [13] = Example 2 Hybrid 3 (D3910VT2P, 2014), seed size 25/20R
# [14] = Example 2 Hybrid 3, column headed GRAMS in the 12th table
compound,measurement,setting,value
"N#CO [Cyanate, Sodium cyanate]",EST. BAG WT.,[1]; [5],40.5 lbs
same,EST. UNITS,[1]; [5],198
same,EST. BAG WT.,[1]; [6],45.7 lbs
same,EST. UNITS,[1]; [6],392
same,EST. BAG WT.,[1]; [7],51.6 lbs
same,EST. UNITS,[1]; [7],180
same,EST. BAG WT.,[1]; [8],60.5 lbs
same,EST. UNITS,[1]; [8],253
same,% SF OF ALL FL,"[1]; Example 2 Hybrid 2, 21/16F units as share of 24/21F and 21/16F",52.38%
same,% SR OF ALL RDS,"[1]; Example 2 Hybrid 2, 21/16R units as share of 24/21R and 21/16R",60.78%
same,% RDS,[1]; Example 2 Hybrid 2,63.05%
same,ABOVE 25,[1]; [9],5
same,BELOW 17,[1]; [9],21
same,"EST. UNITS, total",[1]; Example 2 Hybrid 2,1023
same,yields and proportions of seed at desirable and saleable sizes and shapes,"[1]; Example 2 Hybrid 2 and Hybrid 3, compared to the Untreated Checks",higher yields and proportions
same,EST. BAG WT.,[1]; [10],40.1 lbs
same,EST. UNITS,[1]; [10],232
same,EST. BAG WT.,[1]; [11],42.7 lbs
same,EST. UNITS,[1]; [11],218
same,EST. BAG WT.,[1]; [12],50.6 lbs
same,EST. UNITS,[1]; [12],361
same,EST. BAG WT.,[1]; [13],57 lbs
same,EST. UNITS,[1]; [13],234
same,% SF OF ALL FL,"[1]; Example 2 Hybrid 3, 20/16F units as share of 25/20F and 20/16F",39.12%
same,% SR OF ALL RDS,"[1]; Example 2 Hybrid 3, 20/16R units as share of 25/20R and 20/16R",48.23%
same,% RDS,[1]; Example 2 Hybrid 3,43.25%
same,ABOVE 25,[1]; [14],4
same,BELOW 17,[1]; [14],23
same,"EST. UNITS, total",[1]; Example 2 Hybrid 3,1045
same,"bag weight, in words","[1]; Examples 1 and 2, compared to the Untreated Check",more desirable bag weights
same,WARM GERM,[2]; [5],96%
same,WARM GERM,[2]; [6],96%
same,WARM GERM,[2]; [7],99%
same,WARM GERM,[2]; [8],98%
same,"WARM GERM, sum",[2]; Example 2 Hybrid 2,389%
same,WARM GERM,[2]; [10],98%
same,WARM GERM,[2]; [11],96%
same,WARM GERM,[2]; [12],99%
same,WARM GERM,[2]; [13],99%
same,"WARM GERM, sum",[2]; Example 2 Hybrid 3,392%
same,COLD GERM,[3]; [5],98%
same,COLD GERM,[3]; [6],96%
same,COLD GERM,[3]; [7],99%
same,COLD GERM,[3]; [8],96%
same,"COLD GERM, sum",[3]; Example 2 Hybrid 2,389%
same,COLD GERM,[3]; [10],95%
same,COLD GERM,[3]; [11],95%
same,COLD GERM,[3]; [12],96%
same,COLD GERM,[3]; [13],97%
same,"COLD GERM, sum",[3]; Example 2 Hybrid 3,383%
same,seed vigor based on the super cold germination percentage,"[4]; Example 2, over the Untreated Checks, particularly Hybrid 3",increased seed vigor
same,SUPER COLD,[4]; [5],95%
same,SUPER COLD,[4]; [6],92%
same,SUPER COLD,[4]; [7],97%
same,SUPER COLD,[4]; [8],99%
same,"SUPER COLD, sum",[4]; Example 2 Hybrid 2,383%
same,SUPER COLD,[4]; [10],90%
same,SUPER COLD,[4]; [11],92%
same,SUPER COLD,[4]; [12],95%
same,SUPER COLD,[4]; [13],95%
same,"SUPER COLD, sum",[4]; Example 2 Hybrid 3,372%
